PubChem BioAssay AID2060901 (Molecular Pharmacology Branch, DTP, NCI, 2025)

Test system: 422866-222-R5-J1-PDC complex spheroids viability
Assay: Anticancer human tumor 422866-222-R5-J1-PDC patient-derived pancreatic adenocarcinoma cell line growth inhibition [RAS]
Settings: for IC50: curve of first compound; for viability, T/C: stronger effect = lower value; active = viability on the fitted dose curve at most 10% of control; inactive = the rest
Description: RAS pathway inhibitors in Combinations in Complex Spheroids
A high-throughput screen of multi-cell type tumor spheroids was designed to identify active combinations of RAS pathway inhibitors and targeted small molecules. Complex spheroids include a stromal component modeled by human endothelial cells (HUVEC) and fibroblasts modeled by human mesenchymal stem cells (MSCs). The concentration ranges selected for each drug and investigational agent were based upon clinically achievable concentrations if the clinical Cmax of the agent was known.
Compounds. The drugs and investigational agents: abemaciclib (NSC768073), cobimetinib (NSC768068), divarasib (GDC6063, NSC841802), docetaxel (NSC628503), GDC-1971 (RLY-1971, NSC841576), gemcitabine (NSC613327), inavolisib (NSC800729), ipatasertib (NSC767898), KB-0742 (NSC834161), MRTX-1133 (NSC836407), osimertinib (NSC779217), RMC-4630 (NSC839698), RMC-6236 (NSC851965), RMC-6291 (NSC852671), Ro-3306 (NSC812927), sapanisertib (NSC764658), SN-38 (NSC673596), staurosporine (NSC755774), SY5609 (NSC837396), and tovorafenib (DAY101, NSC766906), were obtained from the National Cancer Institute (NCI) Developmental Therapeutics Program Chemical Repository. The FDA-approved anticancer drug set is available from the NCI Developmental Therapeutics Program. […] The stock solutions were prepared in dimethyl sulfoxide (DMSO, Sigma-Aldrich, St. Louis, MO, cat. D2650) at 800-fold the tested concentration and stored at -70 degrees C prior to their use. All drugs and investigational agents were tested over a range starting from a high concentration at or near the clinical Cmax and decreasing in half-log increments. If the clinical Cmax for an agent had not been determined, the highest concentration tested was 10 microM.
Cell Culture. All cells were maintained in an incubator at 37 degrees C and 5% CO2 with 95% humidity. The PDC lines were cultured according to standard operating procedures established by the NCI PDMR. All PDCs were thawed and cultured in Matrigel-coated flasks prepared with a working solution of 1X Ham's F-12 nutrient mix, without supplementation (Invitrogen, Waltham, MA, cat. 11765054), 100 U/mL penicillin-streptomycin (Invitrogen, cat. 15140122), and 2.5% Matrigel (Corning Inc., Corning, NY, cat. 354248) for the first three passages. The 362531-283-R-J2-PDC and 782815-120-R-J1-PDC lines were cultured in 6C/Colon 1B media, which includes advanced DMEM/F-12 (Thermo Fisher Scientific, cat. 12634028), 10 mM HEPES (Thermo Fisher Scientific, cat. 15630080), 1X GlutaMAX supplement (Thermo Fisher Scientific, cat. 35050061), 0.1 mg/mL primocin (InvivoGen, San Diego, CA, cat. ant-pm-2), 10% defined fetal bovine serum, heat inactivated (HyClone Laboratories Inc., Logan, UT, cat. SH30070.03HI), 50% L-WRN conditioned media (ATCC, cat. CRL-3276), 1.25 mM N-Acetyl-L-cysteine (Sigma-Aldrich, cat. A9165), 10 mM nicotinamide (Sigma-Aldrich, cat. N0636), 1X B-27 supplement (Thermo Fisher Scientific, cat. 17504044), 1X N-2 supplement (Thermo Fisher Scientific, cat. 17502048), 50 ng/mL human EGF (Thermo Fisher Scientific, cat. PHG0311), and 10 microM Y-27632 dihydrochloride (Tocris Bioscience, cat. 1254). The K12877-001-R-J1-PDC line was cultured in 6I media, which includes all 6C/Colon 1B media plus 10 ng/mL human FGF-10 (PeproTech, cat. 100-26), 1 ng/mL human FGF-2 (PeproTech, cat. 100-18B), 1 µM prostaglandin E2 (Tocris Bioscience, cat. 2296), […] hydrocortisone (Sigma-Aldrich, cat. H4001), and […] bovine insulin (Sigma-Aldrich, cat. I6634). The K86415-001-R-J1-PDC line was cultured in 6D media, which includes all 6C/Colon 1B media components minus the L-WRN conditioned media. The 485176-168-R4-J1-PDC was cultured in PANC media, which includes all 6C/Colon 1B media plus 100 ng/mL human FGF-10 (PeproTech, cat. 100-26), 500 nM SB-431542 (Selleckchem, cat. S1067), and 10 nM gastrin (Tocris Bioscience, cat. 3006). […]
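Also: spheroids exposed to compounds for 7 days.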

CCC(CC)c1cc(NC2CCC(N)C2)n2nccc2n1 (centres undefined) + CCn1c(-c2cccnc2C(C)OC)c2c3cc(ccc31)N1CCOC(CC(NC(=O)C(C(C)C)N(C)C(=O)C3(F)CCN(C(=O)C#CC(C)(C)N(C)C)CC3)C(=O)N3CCCC(N3)C(=O)OCC(C)(C)C2)C1
< 0.0316 µM: IC50 (second compound 0.000949 µM) | IC50 (second compound 0.003 µM) | IC50 (second compound 0.00949 µM) | IC50 (second compound 0.03 µM) | IC50 (second compound 0.0949 µM) | IC50 (second compound 0.3 µM)
inactive: viability, T/C (second compound 0.000949 µM, first compound 0.0316 µM) 28.4% | viability, T/C (second compound 0.000949 µM, first compound 0.1 µM) 27.2% | viability, T/C (second compound 0.000949 µM, first compound 0.316 µM) 29.5% | viability, T/C (second compound 0.000949 µM, first compound 1 µM) 32.3% | viability, T/C (second compound 0.000949 µM, first compound 3.16 µM) 13.3% | viability, T/C (second compound 0.000949 µM, first compound 10 µM) 46.4% | viability, T/C (second compound 0.003 µM, first compound 0.0316 µM) 27.7% | viability, T/C (second compound 0.003 µM, first compound 0.1 µM) 22.5% | viability, T/C (second compound 0.003 µM, first compound 0.316 µM) 28.1% | viability, T/C (second compound 0.003 µM, first compound 1 µM) 28.2% | viability, T/C (second compound 0.003 µM, first compound 3.16 µM) 12.1% | viability, T/C (second compound 0.003 µM, first compound 10 µM) 44.5% | viability, T/C (second compound 0.00949 µM, first compound 0.0316 µM) 23.8% | viability, T/C (second compound 0.00949 µM, first compound 0.1 µM) 24.4% | viability, T/C (second compound 0.00949 µM, first compound 0.316 µM) 23.8% | viability, T/C (second compound 0.00949 µM, first compound 1 µM) 29.6% | viability, T/C (second compound 0.00949 µM, first compound 3.16 µM) 14.5% | viability, T/C (second compound 0.00949 µM, first compound 10 µM) 43.7% | viability, T/C (second compound 0.03 µM, first compound 0.0316 µM) 21.2% | viability, T/C (second compound 0.03 µM, first compound 0.1 µM) 22.1% | viability, T/C (second compound 0.03 µM, first compound 0.316 µM) 22.8% | viability, T/C (second compound 0.03 µM, first compound 1 µM) 25.4% | viability, T/C (second compound 0.03 µM, first compound 3.16 µM) 12% | viability, T/C (second compound 0.03 µM, first compound 10 µM) 42% | viability, T/C (second compound 0.0949 µM, first compound 0.0316 µM) 20.7% | viability, T/C (second compound 0.0949 µM, first compound 0.1 µM) 15.8% | viability, T/C (second compound 0.0949 µM, first compound 0.316 µM) 22.4% | viability, T/C (second compound 0.0949 µM, first compound 1 µM) 24.5% | viability, T/C (second compound 0.0949 µM, first compound 3.16 µM) 11.7% | viability, T/C (second compound 0.0949 µM, first compound 10 µM) 45.5% | viability, T/C (second compound 0.3 µM, first compound 0.0316 µM) 15.6% | viability, T/C (second compound 0.3 µM, first compound 0.1 µM) 20.1% | viability, T/C (second compound 0.3 µM, first compound 0.316 µM) 20.7% | viability, T/C (second compound 0.3 µM, first compound 1 µM) 24.1% | viability, T/C (second compound 0.3 µM, first compound 3.16 µM) 12.5% | viability, T/C (second compound 0.3 µM, first compound 10 µM) 48.7%

CC(Nc1ccc2c(c1)OCCn1cc(N3C(=O)OCC3C(F)F)nc1-2)C(N)=O (centres undefined) + C=CC(=O)N1CCN(c2nc(OCC3CCCN3C)nc3c(F)c(-c4nc(N)cc(C)c4C(F)(F)F)c(Cl)cc23)C(C)C1
inactive: viability, T/C (second compound 0.00316 µM, first compound 0.0316 µM) 20.8% | viability, T/C (second compound 0.00316 µM, first compound 0.1 µM) 19.9% | viability, T/C (second compound 0.00316 µM, first compound 0.316 µM) 12.6% | viability, T/C (second compound 0.00316 µM, first compound 1 µM) 11% | viability, T/C (second compound 0.01 µM, first compound 0.0316 µM) 19.1% | viability, T/C (second compound 0.01 µM, first compound 0.1 µM) 18% | viability, T/C (second compound 0.01 µM, first compound 0.316 µM) 13.5% | viability, T/C (second compound 0.0316 µM, first compound 0.0316 µM) 24.5% | viability, T/C (second compound 0.0316 µM, first compound 0.1 µM) 14.3% | viability, T/C (second compound 0.1 µM, first compound 0.0316 µM) 14.6% | viability, T/C (second compound 0.1 µM, first compound 0.1 µM) 10.9% | viability, T/C (second compound 0.316 µM, first compound 0.0316 µM) 18.3% | viability, T/C (second compound 0.316 µM, first compound 0.1 µM) 11% | viability, T/C (second compound 1 µM, first compound 0.0316 µM) 16.5% | viability, T/C (second compound 1 µM, first compound 0.1 µM) 15.8% | viability, T/C (second compound 1 µM, first compound 0.316 µM) 9.93%
active: viability, T/C (second compound 0.00316 µM, first compound 3.16 µM) 7.97% | viability, T/C (second compound 0.00316 µM, first compound 10 µM) 7.01% | viability, T/C (second compound 0.01 µM, first compound 1 µM) 6.65% | viability, T/C (second compound 0.01 µM, first compound 3.16 µM) 7.17% | viability, T/C (second compound 0.01 µM, first compound 10 µM) 4.82% | viability, T/C (second compound 0.0316 µM, first compound 0.316 µM) 9.64% | viability, T/C (second compound 0.0316 µM, first compound 1 µM) 7.15% | viability, T/C (second compound 0.0316 µM, first compound 3.16 µM) 5.78% | viability, T/C (second compound 0.0316 µM, first compound 10 µM) 4.99% | viability, T/C (second compound 0.1 µM, first compound 0.316 µM) 9.29% | viability, T/C (second compound 0.1 µM, first compound 1 µM) 8.93% | viability, T/C (second compound 0.1 µM, first compound 3.16 µM) 5.79% | viability, T/C (second compound 0.1 µM, first compound 10 µM) 5.64% | viability, T/C (second compound 0.316 µM, first compound 0.316 µM) 9.82% | viability, T/C (second compound 0.316 µM, first compound 1 µM) 6.95% | viability, T/C (second compound 0.316 µM, first compound 3.16 µM) 6.91% | viability, T/C (second compound 0.316 µM, first compound 10 µM) 7.16% | viability, T/C (second compound 1 µM, first compound 1 µM) 7.52% | viability, T/C (second compound 1 µM, first compound 3.16 µM) 6.84% | viability, T/C (second compound 1 µM, first compound 10 µM) 7.05%
< 0.0316 µM: IC50 (second compound 0.00316 µM) | IC50 (second compound 0.01 µM) | IC50 (second compound 0.0316 µM) | IC50 (second compound 0.1 µM) | IC50 (second compound 0.316 µM) | IC50 (second compound 1 µM)
